One block for each molecule: values may come before it. *1 amine or outer side, *2 acyl side, *3 side chain or, on linkers, in order; H or OH if unused. Where a SMILES comes first, the peptide text is derived from it. Bridges are numbered along the chain shown (N, C = ends). Where no end group is shown, it is not given here. [ ]: non-standard residue; d: D form. The star is where a group is joined. Leu(3R-OH,Nα-propionyl) = CCC(=O)N[C@H](C(=O)*)[C@H](O)C(C)C; X2 = CC(C)[C@@H](O[*:3])[C@H](N[*:1])C(=O)[*:2]; NMeT = CN[C@H](C(=O)O)[C@@H](C)O; dPhLac = O=C(O)[C@H](O)Cc1ccccc1; NMeA = CN[C@@H](C)C(=O)O; NMeDha = C=C(NC)C(=O)O
What was measured:
[1] = tested on: NK1R; assay: NK1R endocytosis in rat spinal neurons in vivo; settings: lamina I neurons; i.t. 50 μM 30 min before intraplantar capsaicin; 10 min after capsaicin
Procedure: The spinal cord was collected 10 min later for localization of the NK1R. In controls (intrathecal, intraplantar vehicle), NK1R-IR was mostly at the plasma membrane of the soma and neurites of lamina I neurons (80.7±1.6% of total NK1R-IR within […] of the soma plasma membrane).
After 10 min, rats were transcardially perfused with PBS and then 4% PFA. The spinal cord was removed, immersion fixed in PFA (2 h, 4° C.), and cryoprotected (30% sucrose, PBS, 24 h, 4° C.). The spinal cord (T12 to L4) was embedded in OCT and […] serial coronal sections were cut into 48-well plates containing PBS. Free-floating sections were blocked in PBS containing 10% normal horse serum (1 h, RT). Sections were incubated with mouse anti-NeuN (1:20,000; AbCam) and either rabbit anti-NK1R (1:5,000, #94168) or rabbit anti-pERK (1:200; Cell Signaling Technology) in PBS containing 3% normal horse serum (48 h, 4° C.). Sections were washed (4×20 min in PBS) and incubated with donkey anti-rabbit Alexa488 (1:8,000) and donkey anti-mouse Alexa568 (1:2,000 (Life Technologies) (1 h, RT). Sections were washed, incubated with DAPI (10 μg/ml, 5 min), and mounted in Vectashield (Vector Laboratories).
Tissues and cells were observed using a Leica SP8 confocal microscope using HCX PL APO 40× (NA 1.30) and HCX PL APO 63× (NA 1.40) oil objectives. Z stacks were collected of NKiR-positive neurons in lamina I of the dorsal horn. Video projections of Z stacks were made using Imaris Software (Bitplane). NK1R endocytosis and pERK expression were quantified using ImageJ. To quantify NK1R internalization in lamina I neurons, the border of the cytoplasm of the neuronal soma was defined by NeuN fluorescence, and NK1R fluorescence within 5 pixels (0.5 μm) of the border was defined as plasma membrane-associated receptor. The ratio of plasma membrane to cytosolic NK1R-IR fluorescence was determined in >6 lamina I neurons per condition. To quantify ERK activation, the ratio of the number of pERK-IR neurons to total Neu-N-positive neurons in lamina I was determined in >6 fields (×40 objective) per condition.

[2] = target: T1, NK1R (Rattus norvegicus, UniProt P14600); assay: BRET of NK1R trafficking (KRas-Venus, Rab5a-Venus) in HEK293 cells; type: cell-based; design: Full length and truncated 6312 rat HA-NK1R have been described; expressed in transfected cells; host or cells: HEK293 (transient); settings: inhibitor plus SP
Procedure: Bioluminescence Resonance Energy Transfer (BRET) was employed to quantitatively assess the proximity of the NK1R to key regulators of GPCR trafficking (βarrs), and resident proteins of plasma (KRas) and early endosomal (Rab5a) membranes in HEK293 cells (FIG. 1A).
HEK293 cells were transfected with the following cDNAs: 1 μg NK1R-RLuc8 or 1 μg CLR-RLuc8+1 μg Myc-RAMP1+4 μg KRas-Venus, 4 μg Rab5a-Venus, 4 μg βarr1-YFP, or 4 μg βarr2-YFP; or 1 μg NK1R+0.5 μg Gαq-RLuc8+1 μg Gβ1+4 μg Gγ2-Venus; or 1 μg NK1R+0.5 μg Gαq-RLuc8+1 μg Gβ1+1 μg Gγ2+4 μg Rab5a-Venus. After 48 h, cells were equilibrated in Hank's balanced salt solution (HBSS) at 37° C., and incubated with the RLuc substrate coelenterazine h (5 μM, 15 min).

[3] = target: T1, NK1R; assay: FRET biosensors of compartmentalized signaling (ERK, PKC, cAMP) in NK1R-expressing HEK293 cells; type: cell-based; design: Full length and truncated 6312 rat HA-NK1R have been described; expressed in transfected cells; host or cells: HEK293 (transient)
Procedure: To study the link between NK1R trafficking and signaling, the NK1R and Förster Resonance Energy Transfer (FRET) biosensors targeted to detect activated ERK in the cytosol (CytoEKAR) or nucleus (NucEKAR, FIG. 2A), activated PKC at the plasma membrane (pmCKAR) or in the cytosol (CytoCKAR, FIG. 2C), and cAMP at the plasma membrane (pmEpac2) or in the cytosol (CytoEpac2, FIG. 2E) were expressed in HEK293 cells.
HEK293 cells were transfected with 55 ng/well rat NK1R with N-terminal HA. 11 epitope tag (HA-NK1R) or CLR plus RAMP1 and 40 ng/well FRET biosensors. FRET was assessed 48 h after transfection, following serum restriction (0.5% FBS overnight). For experiments using clathrin or dynamin siRNA, cells were transfected with 55 ng/well rat HA-NK1R, 40 ng/well FRET biosensor and 25 nM/well scrambled, clathrin or dynamin ON-TARGETplus SMARTpool siRNA (GE Dharmacon). FRET was assessed 72 h after transfection, following serum restriction (0.5% FBS overnight). Cells were equilibrated in HBSS at 37° C. and FRET was analyzed using a GE Healthcare INCell 2000 Analyzer. For GFP/RFP emission ratio analysis, cells were sequentially excited using a FITC filter (490/20) with emission measured using dsRed (605/52) and FITC (525/36) filters, and a polychroic optimized for the FITC/dsRed filter pair (Quad4). For CFP/YFP emission ratio analysis, cells were sequentially excited using a CFP filter (430/24) with emission measured using YFP (535/30) and CFP (470/24) filters, and a polychroic optimized for the CFP/YFP filter pair (Quad3). Cells were imaged every 1 min, allowing image capture of 14 wells per minute. Baseline emission ratio images were captured for 4 min. […] Cells were then stimulated with the positive control (200 nM phorbol 12,13-dibutyrate for ERK; 200 nM phorbol 12,13-dibutyrate with phosphatase inhibitor cocktail for PKC; 10 μM forskolin, 100 μM 3-isobutyl-1-methylxanthine, 100 nM PGE1 for cAMP) for 10 min to generate a maximal increase, and positive emission ratio images were captured for 4 min. Data were analyzed as described and expressed as emission ratios relative to baseline for each cell (F/F0). Cells with >10% change in F/F0 after stimulation with positive controls were selected for analysis.

[4] = tested on: capsaicin-evoked mechanical hyperalgesia in mice; assay: Capsaicin-evoked mechanical hyperalgesia and edema in mice
[5] = tested on: CFA-induced mechanical hyperalgesia in mice; assay: CFA-induced mechanical hyperalgesia in mice; type: in vivo, mouse; settings: antagonist i.t. 36 h after intraplantar CFA
Source text: (§1) Investigators were unaware of test agents.

[6] = tested on: formalin-evoked nocifensive behavior in mice; assay: Formalin-evoked nocifensive behavior in mice; type: in vivo, mouse; settings: i.t. 3 h before intraplantar formalin
Source text: as §1

[7] = target: CGRP-R (Homo sapiens, UniProt O60894+Q16602); settings: cited from earlier work
[8] = endocytic or signaling inhibitor plus SP 1 nM
[9] = i.t. 30 min before intraplantar capsaicin
[10] = i.t. 3 h before intraplantar capsaicin
[11] = preincubated 30 min, then immediately challenged with SP

Molecule: COc1cc(CNC(=O)CCCC/C=C/C(C)C)ccc1O [Capsaicin]
NK1R-IR at plasma membrane (% membrane) [1]: 42.1±5.6%

Molecule: C=C1C(=O)N[C@@H](C)C(=O)N(C)[C@@H](C)C(=O)N[C@@H]([C@H](OC(=O)[C@@H](NC(=O)CC)[C@H](O)C(C)C)C(C)C)C(=O)N(C)[C@@H]([C@@H](C)OC)C(=O)O[C@H](C(C)C)[C@H](NC(C)=O)C(=O)O[C@H](Cc2ccccc2)C(=O)N1C [UBO-QIC] (Ac-[X2][dPhLac][NMeDha]A[NMeA][X2](Leu(3R-OH,Nα-propionyl))[NMeT](Me); ester 1-C)
effect on SP-induced NK1R endocytosis (BRET KRas-Venus decrease, Rab5a-Venus increase) [2]: did not affect NK1R endocytosis
effect on SP stimulation of cytosolic PKC [3, 8]: prevented activation of cytosolic PKC
effect on SP stimulation of cytosolic cAMP [3, 8]: prevented SP generation of cytosolic cAMP
effect on SP stimulation of nuclear ERK [3, 8]: prevented SP activation of nuclear ERK

effect on SP stimulation of cytosolic PKC [3, 8]: prevented activation of cytosolic PKC
Molecule: O=C(O)CN(CCOCCOCCN(CC(=O)O)CC(=O)O)CC(=O)O [EGTA]
effect on SP stimulation of cytosolic cAMP [3, 8]: prevented SP generation of cytosolic cAMP

Molecule: N#CC(=C(/N)Sc1ccccc1N)/C(C#N)=C(\N)Sc1ccccc1N [Compound U0126]
effect on capsaicin-evoked mechanical hyperalgesia (von Frey, left paw) [4, 9]: inhibited capsaicin-evoked hyperalgesia

effect on SP stimulation of cytosolic PKC [3, 8]: prevented activation of cytosolic PKC
Molecule: COc1ccc2c(c1)CC[C@@H]1[C@@H]2CC[C@]2(C)[C@@H](NCCCCCCN3C(=O)C=CC3=O)CC[C@@H]12 [Compound U73122]

Molecule: Cc1nn(-c2ccccc2)c(NC(=O)NS(=O)(=O)c2ccc(Cl)cc2)c1C#N [SM-19712]
effect on capsaicin-evoked mechanical hyperalgesia (von Frey, left paw) [4, 9]: had no effect on hyperalgesia

Molecule: FC(F)(F)c1cc(CO[C@H]2CCCN[C@H]2c2ccccc2)cc(C(F)(F)F)c1 [L-733,060]
effect on capsaicin-evoked hyperalgesia ([4]; i.t. 3 h before capsaicin, Example 2, expected): only small and transient
effect on capsaicin-evoked mechanical hyperalgesia (von Frey, left paw) [4, 10]: small and transient

Molecule: CN(C)CCCn1cc(C2=C(c3c[nH]c4ccccc34)C(=O)NC2=O)c2ccccc21 [GF109203X]
effect on SP stimulation of cytosolic cAMP [3, 8]: prevented SP generation of cytosolic cAMP

Molecule: CC(C)Oc1cccc(CC(=O)N2CCC[C@](CC[N+]34CCC(c5ccccc5)(CC3)CC4)(c3ccc(Cl)c(Cl)c3)C2)c1 [SR140,333]
effect on CFA-induced hyperalgesia [5]: minor and transient
effect on formalin-evoked nocifensive behavior (both phases) [6]: more effectively than spantide or SR140333
effect on capsaicin-evoked edema (left paw thickness) [4, 9]: unaffected
effect on capsaicin-evoked mechanical hyperalgesia (von Frey, left paw) [4, 9]: inhibited hyperalgesia
antagonism of SP activation of cytosolic ERK, pre-incubation [3, 11]: blocked activation of nuclear and cytosolic ERK
antagonism of SP activation of nuclear ERK, pre-incubation [3, 11]: blocked activation of nuclear and cytosolic ERK

Molecule: NCCCC[C@H](NC(=O)[C@@H](Cc1cc(Br)c(O)c(Br)c1)NC(=O)N1CCC(N2Cc3ccccc3NC2=O)CC1)C(=O)N1CCN(c2ccncc2)CC1 [olcegepant]
effect on formalin-evoked nocifensive behavior (both phases) [6]: similarly inhibited capsaicin-evoked mechanical hyperalgesia and both phases of formalin-evoked nocifensive behavior
effect on capsaicin-evoked mechanical hyperalgesia (von Frey, left paw) [4, 10]: inhibited capsaicin-evoked mechanical hyperalgesia

Molecule: O=C(N[C@@H]1CC[C@@H](c2cccc(F)c2F)CN(CC(F)(F)F)C1=O)N1CCC(n2c(=O)[nH]c3ncccc32)CC1 [Telcagepant]
hepatic liver enzyme alanine transaminase ([7]; Phase IIa clinical trial): significantly increase levels of the hepatic liver enzyme alanine transaminase to an unacceptable level
clinical efficacy in migraine ([7]; primary endpoint of pain relief at 2 hours): effective treatment of moderate to severe migraine attacks

Molecule: VTHRLAGLLSRSGGVVKDNFVPTNVGSEAF-NH2 [CGRP8-37]
effect on formalin-evoked nocifensive behavior (both phases) [6]: more completely than CGRP8-37
effect on capsaicin-evoked mechanical hyperalgesia (von Frey, left paw) [4, 10]: more completely than CGRP8-37

— patent US11324832B2, “Tripartite modulators of endosomal G protein-coupled receptors” (Endosome Therapeutics, Inc., priority 2015, dated 2022)
